Experiment: xn = mol fraction of the nth substance listed

CCNCC + CCCCCCCO
viscosity [mPa·s], 100 kPa
Conditions	x1 = 0.0806	x1 = 0.1606	x1 = 0.2415	x1 = 0.3492	x1 = 0.4394	x1 = 0.5613	x1 = 0.6506	x1 = 0.7401	x1 = 0.8503	x1 = 0.9414
293.15 K	6.26	5.55	4.87	4.03	3.37	2.55	2.02	1.52	0.947	0.532
303.15 K	4.47	3.94	3.45	2.83	2.36	1.78	1.4	1.07	0.7	0.43
313.15 K	3.3	2.91	2.53	2.07	1.72	1.3	1.03	0.79	0.52	0.35
323.15 K	2.47	2.17	1.89	1.54	1.28	0.97	0.78	0.6	0.42	0.3

COCCOCCOCCOC + CCCCCCCO
101 kPa
Conditions	viscosity [mPa·s]
293.15 K, x1 = 0.05281	5.682
293.15 K, x1 = 0.09018	5.069
293.15 K, x1 = 0.2084	3.662
293.15 K, x1 = 0.2924	3.185
293.15 K, x1 = 0.4036	2.821
293.15 K, x1 = 0.5165	2.541
293.15 K, x1 = 0.5861	2.393
293.15 K, x1 = 0.6984	2.25
293.15 K, x1 = 0.8022	2.21
293.15 K, x1 = 0.8977	2.195
293.15 K, x1 = 0.9591	2.185
303.15 K, x1 = 0.05495	4.164
303.15 K, x1 = 0.08973	3.734
303.15 K, x1 = 0.2069	2.83
303.15 K, x1 = 0.2951	2.469
303.15 K, x1 = 0.403	2.197
303.15 K, x1 = 0.504	2.013
303.15 K, x1 = 0.5851	1.916
303.15 K, x1 = 0.705	1.813
303.15 K, x1 = 0.7893	1.785
303.15 K, x1 = 0.9012	1.776
303.15 K, x1 = 0.9516	1.777
313.15 K, x1 = 0.0542	3.158
313.15 K, x1 = 0.09194	2.876
313.15 K, x1 = 0.2077	2.266
313.15 K, x1 = 0.2951	2
313.15 K, x1 = 0.4053	1.782
313.15 K, x1 = 0.5078	1.654
313.15 K, x1 = 0.59	1.579
313.15 K, x1 = 0.7035	1.515
313.15 K, x1 = 0.795	1.483
313.15 K, x1 = 0.9054	1.474
313.15 K, x1 = 0.9487	1.471

Nc1ccccc1 + CCCCCCCO
viscosity [mPa·s], 100 kPa
Conditions	x1 = 0.0821	x1 = 0.1633	x1 = 0.2429	x1 = 0.3578	x1 = 0.4421	x1 = 0.5517	x1 = 0.6514	x1 = 0.7434	x1 = 0.8522	x1 = 0.9421
293.15 K	6.21	5.64	5.21	4.74	4.45	4.11	3.94	3.86	3.86	4.1
303.15 K	4.48	4.11	3.82	3.46	3.23	2.99	2.86	2.79	2.82	2.97
313.15 K	3.31	3.05	2.85	2.61	2.46	2.3	2.22	2.19	2.22	2.34
323.15 K	2.51	2.36	2.2	2.01	1.91	1.8	1.75	1.73	1.75	1.84

CCNCC + CCCCCCO
viscosity [mPa·s], 100 kPa
Conditions	x1 = 0.0806	x1 = 0.1594	x1 = 0.2398	x1 = 0.3506	x1 = 0.4394	x1 = 0.559	x1 = 0.6502	x1 = 0.7392	x1 = 0.8506	x1 = 0.9401
293.15 K	4.73	4.11	3.54	2.83	2.32	1.71	1.32	0.98	0.65	0.43
303.15 K	3.45	3.02	2.59	2.08	1.7	1.27	1	0.75	0.52	0.37
313.15 K	2.58	2.24	1.92	1.53	1.25	0.93	0.73	0.55	0.398	0.31
323.15 K	1.97	1.71	1.46	1.16	0.95	0.71	0.56	0.44	0.33	0.27

COCCOCCOCCOC + CCCCCCO
101 kPa
Conditions	viscosity [mPa·s]
293.15 K, x1 = 0.04492	4.503
293.15 K, x1 = 0.09537	3.827
293.15 K, x1 = 0.1973	3.104
293.15 K, x1 = 0.2976	2.686
293.15 K, x1 = 0.4067	2.427
293.15 K, x1 = 0.5095	2.269
293.15 K, x1 = 0.6012	2.199
293.15 K, x1 = 0.6895	2.144
293.15 K, x1 = 0.7928	2.134
293.15 K, x1 = 0.8972	2.135
293.15 K, x1 = 0.9607	2.158
303.15 K, x1 = 0.04662	3.285
303.15 K, x1 = 0.09419	2.854
303.15 K, x1 = 0.2001	2.327
303.15 K, x1 = 0.2995	2.056
303.15 K, x1 = 0.4075	1.869
303.15 K, x1 = 0.5134	1.747
303.15 K, x1 = 0.5831	1.711
303.15 K, x1 = 0.6929	1.697
303.15 K, x1 = 0.7889	1.712
303.15 K, x1 = 0.9161	1.735
303.15 K, x1 = 0.9401	1.753
313.15 K, x1 = 0.04436	2.565
313.15 K, x1 = 0.09283	2.292
313.15 K, x1 = 0.2014	1.894
313.15 K, x1 = 0.2982	1.701
313.15 K, x1 = 0.41	1.56
313.15 K, x1 = 0.5102	1.491
313.15 K, x1 = 0.601	1.454
313.15 K, x1 = 0.6974	1.435
313.15 K, x1 = 0.8008	1.435
313.15 K, x1 = 0.8996	1.453
313.15 K, x1 = 0.9626	1.462
